From patent EP1282680B1, “COMPOSITIONS COMPRISING CYCLODEXTRIN” (THE PROCTER & GAMBLE COMPANY, priority 2000, dated 2001)
Structures can show the parent of a compound that is named as a salt.

Experiments:
[1] = CD interaction of perfume components; assay type: physicochemical; settings: weak = cyclodextrin-compatible; significant or strong = cyclodextrin-incompatible
Description: The following table illustrates the molecular weight property of some of the cyclodextrin-incompatible enduring (hydrophobic) perfume materials (i.e. having significant or strong CD interaction) versus cyclodextrin-compatible perfume materials (i.e. having weak CD interaction).

[2] = Complexation constant with cyclodextrin, spectral displacement method with phenolphthalein; assay type: binding; settings: unit not given, the text gives complexation constants in M^-1
Description: (§1) A spectral displacement method with phenolphthalein is used to determine the complexation constant between cyclodextrin and a given material, especially for surfactants. This method of determining complexation constants with cyclodextrins is described in detail in the following references: Sasaki, KJ., Christian, S.D., and Tucker, E.E., "Study of the Stability of 1:1 Complexes Between Aliphatic Alcohols and b-Cyclodextrins in Aqueous Solution," Fluid Phase Equilibria, Vol. 49, (Amsterdam, Elsevier Science Publishers, 1989), pp. 281-89. Further information regarding spectral displacement methods can be found in other references, e.g. in Wilson, L.D., Siddall, S.R, and Verrall RE., "A Spectral Displacement Study of the Binding Constants of Cyclodextrin-Hydrocarbon and - Fluorocarbon Surfactant Inclusion Complexes," Canadian Journal of Chemistry, Vol. 75, (NRC Canada 1997), pp. 927-933.
The test method is based on the fact that phenolphthalein will complex with cyclodextrin and in complexed form is colorless. However, it has a strong color at pH 10.5 when in non-complexed form. Other, cyclodextrin-incompatible, materials themselves complex with the cyclodextrin and prevent the phenolphthalein from doing so. Thus the higher the complexation constant of the other component with cyclodextrin, the more non-complexed phenolphthalein will be present and the stronger the observed color.
The complexation constant of a given material with cyclodextrin is obtained by an absorbance measurement in the visible region at 550 nm that is performed with a spectrophotometer at room temperature. All solutions are prepared in 4.0 x 10^-3 mol/l Na2CO3 solution to maintain a constant pH. The concentration of phenolphthalein is kept constant at 3.0 x 10^-5 mol/l. Cyclodextrin concentration and surfactant concentration are varied. Here, optimum parameter values for absorption coefficient of phonolphthalein at 550 nm is 33,000 M^-1 cm^-1, and the complexation constants of phenolphthalein with cyclodextrin and cyclodextrin derivatives are preliminary obtained. […] Complexation constants of cyclodextrin-compatible and/or cyclodextrin-incompatible materials arc determined with using the free, uncomplexed phenolphthalein concentration obtained by absorbance at 550 nm.

[3] = Elevation of surfactant surface tension in the presence of cyclodextrin; assay type: physicochemical; settings: in the presence of a typical cyclodextrin like hydroxypropyl beta-cyclodextrin and methylated beta-cyclodextrin (1%)
Description: Cyclodextrin-incompatible surfactants generally can be readily identified by the noticeable effect of cyclodextrin on the surface tension provided by the cyclodextrin-incompatible surfactant This is achieved by determining the surface tension (in dyne/cm) of aqueous solutions of the cyclodextrin-incompatible surfactant in the presence and in the absence of 1% of a specific cyclodextrin in the solutions. The aqueous solutions contain cyclodextrin-incompatible surfactant at concentrations of approximately 0.5%, 0.1%, 0.01%, and 0.005%. The cyclodextrin can affect the surface activity of a surfactant by elevating the surface tension of the surfactant solution. […]
Suitable cyclodextrin-compatible surfactants can also be readily identified by the absence of effect of cyclodextrin on the surface tension provided by the surfactant. […]

[4] = cited from earlier work
[5] = Complexation constant of phenolphthalein with beta-cyclodextrin, absorbance at 550 nm; assay type: binding; settings: room temperature, 4.0 x 10^-3 mol/l Na2CO3 solution, pH 10.5
Description: as §1, with “927-933. […]” for “927-933.”
The complexation constant of a given material with cyclodextrin is obtained by an absorbance measurement in the visible region at 550 nm that is performed with a spectrophotometer at room temperature. […] Complexation constants of cyclodextrin-compatible and/or cyclodextrin-incompatible materials arc determined with using the free, uncomplexed phenolphthalein concentration obtained by absorbance at 550 nm.

| Molecule | CD interaction [1] | other results |
| --- | --- | --- |
| CC(C=O)Cc1ccc(C(C)C)cc1 (centres unmarked) [Cymal] | strong |  |
| CCOC(=O)c1ccccc1C(=O)OCC [Diethyl Phthalate] | weak |  |
| CCCCCCCCCCCC[N+](C)(C)C.[Br-] [Dodecyltrimethylammonium bromide] |  | Complexation Constant (K) [2]: about 18100 |
| CC(=O)OC1CC2CC1C1CC=CC21 (centres unmarked) [Flor Acetate] | strong |  |
| CCC(=O)OC1CC2CC1C1CC=CC21 (centres unmarked) [Frutene] | strong |  |
| CC1COCc2cc3c(cc21)C(C)(C)C(C)C3(C)C (centres unmarked) [Galaxolide] | weak |  |
| CCCCCCOC(=O)c1ccccc1O [Hexyl Salicylate] | weak |  |
| CCCCCCC(C=O)=Cc1ccccc1 [Hexyl cinnamic Aldehyde] | weak |  |
| CC(=O)C1(C)CC2=C(CCCC2(C)C)CC1C (centres unmarked) [Iso-E Super] | weak |  |
| CCCCCCCCCCCCCC(=O)OC(C)C [Iso-propyl Myristate] | weak |  |
| CC(=O)C(C)=C(C)C(C)C(C)(C)C (centres unmarked) [Koavone] | strong |  |
| CC(C=O)Cc1ccc(C(C)(C)C)cc1 (centres unmarked) [Lilial, p-t-bucinal] | strong |  |
| CC(C)(O)CCCC1=CCC(C=O)CC1 (centres unmarked) [Lyral] | weak |  |
| CCCCCC1C(=O)CCC1CC(=O)OC (centres unmarked) [Methyl Dihydro Jasmonate] | weak |  |
| O=C(Cc1ccccc1)OCCc1ccccc1 [Phenyl-Ethyl-Phenyl Acetate] | weak |  |
| CCCCCCCCCCCCOS(=O)(=O)[O-].[Na+] [Sodium dodecyl sulfate] |  | Complexation Constant (K) [2]: about 22000; elevation in surface tension [3]: > 10% |
| CCCCCCCCCCCC(=O)[O-].[Na+] [Sodium laurate] |  | Complexation Constant (K) [2]: about 16000 |
| CC(=O)OC(C)(C)C1CC=C(C)CC1 (centres unmarked) [Terpinyl Acetate] | significant |  |
| CCC(C)(O)CCCC(C)C (centres unmarked) [Tetrahydrolinalol] | significant |  |
| CC(=O)OC1CCC(C(C)(C)C)CC1 (centres unmarked) [Vertenex, para-tert-butylcyclohexyl acetate] | strong |  |
| CC(=O)/C=C/C1C(C)=CCCC1(C)C (centres unmarked) [a-ionone] | strong |  |
| [H]/N=C(\N/C(=N/[H])NCCCCCCNC(=N)NC(=N)Nc1ccc(Cl)cc1)Nc1ccc(Cl)cc1 [diacetate salt, 1,1'-hexamethylene bis(5-(p-chlorophenyl)biguanide)] |  | solubility in water [4]: 1.8% |
| [H]/N=C(\N/C(=N/[H])NCCCCCCNC(=N)NC(=N)Nc1ccc(Cl)cc1)Nc1ccc(Cl)cc1 [digluconate salt, 1,1'-hexamethylene bis(5-(p-chlorophenyl)biguanide)] |  | solubility in water [4]: 70% |
| O=C1OC(c2ccc(O)cc2)(c2ccc(O)cc2)c2ccccc21 [phenolphthalein] |  | complexation constant of phenolphthalein with beta-cyclodextrin [5]: about 21,000 M^-1 |
| Lauramine oxide |  | Complexation Constant (K) [2]: about 7500 |
| Lawreth-6 |  | Complexation Constant (K) [2]: about 10000 |
| a-Me Ionone | strong |  |
| dodecanolpoly(6)ethoxylate |  | elevation in surface tension [3]: > 10% |
